Results reported in patent US7691836B2, “Progesterone receptor modulators” (N.V. Organon, priority 2004, dated 2010).
Counter-ions that a name gives are not always drawn.

Assays:
progesterone receptor-B [1] = molecular target: T1, progesterone receptor-B (Homo sapiens, UniProt P06401); test: Progesterone receptor-B transactivation, agonistic mode (CHO cells, luciferase); type: cell-based; conditions: for EC50: CHO cells, agonistic mode, read-out: PRBagoEC50; for Emax: CHO, read-out: PRBago Eff (%)
T1 sequence (P06401 1-933): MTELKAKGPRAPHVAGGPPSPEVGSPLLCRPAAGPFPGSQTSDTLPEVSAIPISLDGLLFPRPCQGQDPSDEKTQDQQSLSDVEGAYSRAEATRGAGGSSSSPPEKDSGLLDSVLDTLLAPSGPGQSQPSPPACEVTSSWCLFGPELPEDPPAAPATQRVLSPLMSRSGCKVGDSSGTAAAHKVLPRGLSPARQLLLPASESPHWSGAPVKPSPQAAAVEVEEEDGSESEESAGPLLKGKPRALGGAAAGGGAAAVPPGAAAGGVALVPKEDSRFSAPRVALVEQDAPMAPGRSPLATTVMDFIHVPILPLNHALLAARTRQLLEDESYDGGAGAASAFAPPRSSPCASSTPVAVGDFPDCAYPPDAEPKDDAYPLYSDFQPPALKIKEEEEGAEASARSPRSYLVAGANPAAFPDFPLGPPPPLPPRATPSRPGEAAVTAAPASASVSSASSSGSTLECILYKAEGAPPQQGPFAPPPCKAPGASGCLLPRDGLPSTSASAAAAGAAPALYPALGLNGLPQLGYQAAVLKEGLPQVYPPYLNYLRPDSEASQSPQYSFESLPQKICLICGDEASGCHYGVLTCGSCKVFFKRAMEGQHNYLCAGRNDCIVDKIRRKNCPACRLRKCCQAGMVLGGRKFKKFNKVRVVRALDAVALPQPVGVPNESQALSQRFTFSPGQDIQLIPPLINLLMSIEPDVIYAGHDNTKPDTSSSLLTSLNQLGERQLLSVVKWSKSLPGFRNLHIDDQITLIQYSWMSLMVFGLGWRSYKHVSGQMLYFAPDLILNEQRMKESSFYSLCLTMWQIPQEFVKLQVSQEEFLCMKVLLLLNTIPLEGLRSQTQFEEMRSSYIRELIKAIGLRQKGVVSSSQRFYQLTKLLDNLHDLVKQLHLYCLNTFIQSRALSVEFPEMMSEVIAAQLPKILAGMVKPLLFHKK
Description: For selecting compounds of the subject invention with a mixed modulating effect on the progesterone receptor, testing in the agonistic mode must result in an intrinsic activity of between about 15% and about 85% of the maximal activity when (16α)-16-ethyl-21-hydroxy-19-norpregn-4-ene-3,20-dione is used as a reference. Moreover, this maximal agonistic activity should be reached at a concentration of 10^−6 or less, and preferably at a concentration of 10^−8 or less.
(§1) The progestagenic activity of a compound of the invention (EC50 and intrinsic agonistic activity) was determined in an in vitro bioassay of Chinese hamster ovary (CHO) cells as described by W. G. E. J. Schoonen et al. (Anal. Biochem. 261 (1998), 222-224). […] The efficacy of the antagonistic effect was expressed as the percentage of the effect produced by a standard antagonist, (6β,11β,17β)-11-[4-(dimethylamino)phenyl]-4′,5′-dihydro-6-methylspiro[estra-4,9-diene-17,2′(3′H)-furan]-3-one.
(§2) It will be recognized by those skilled in the art that, in the setting described above, the EC50 determined is more or less absolute and depends on the intrinsic property of the tested compound itself, however, the IC50 depends on the amount and agonistic EC50 of the inducer as well as on the intrinsic property of the tested compound itself. Thus, with the same amount of inducer, a relatively strong antagonist will be able to produce a measurable IC50 whereas a relatively weak antagonist may fail to produce a detectable result.

progesterone receptor-B [2] = molecular target: T1, progesterone receptor-B; test: Progesterone receptor-B transactivation, antagonistic mode (inhibition of luciferase transactivation by inducer, CHO cells); type: cell-based; conditions: for Emax: CHO, read-out: PRBant Eff (%); for EC50: in the presence of 0.1 nM inducer (16α)-16-ethyl-21-hydroxy-19-norpregn-4-ene-3,20-dione, read-out: PRBant EC50
Description: In the antagonistic mode, testing must result in an intrinsic activity of between about 85% and about 15% of the maximal activity when (6β,11β,17β)-11-[4-(dimethylamino)phenyl]-4′,5′-dihydro-6-methylspiro[estra-4,9-diene-17,2′(3′H)-furan]-3-one is used as a reference.
as §1, §2

[3] = intrinsic agonistic activity, relative to reference (16α)-16-ethyl-21-hydroxy-19-norpregn-4-ene-3,20-dione
[4] = intrinsic antagonistic activity, percentage of effect of standard antagonist (6β,11β,17β)-11-[4-(dimethylamino)phenyl]-4′,5′-dihydro-6-methylspiro[estra-4,9-diene-17,2′(3′H)-furan]-3-one, 0.1 nM inducer

## C[C@]12C[C@H](c3ccc(-c4cccnc4)cc3)C3=C4CCC(=O)C=C4CC[C@H]3[C@@H]1CC[C@@H]2C(=O)C1CC1 [Example 18, (11β,17β)-17-cyclopropylcarbonyl-11-[4-(3-pyridinyl)phenyl]estra-4,9-dien-3-one]
Progesterone receptor-B [1]
  EC50: 0.82 nM
Progesterone receptor-B [1]; [3]
  Emax: 36%
Progesterone receptor-B [2]; [4]
  Emax: 66%
Progesterone receptor-B [2]
  EC50: 0.751 nM

## COc1ccc(-c2ccc([C@H]3C[C@]4(C)[C@@H](C(=O)C5CC5)CC[C@H]4[C@@H]4CCC5=CC(=O)CCC5=C43)cc2)cn1 [Example 19, (11β,17β)-17-cyclopropylcarbonyl-11-[4-(6-methoxypyridin-3-yl)phenyl]estra-4,9-dien-3-one]
Progesterone receptor-B [1]
  EC50: 0.51 nM
Progesterone receptor-B [1]; [3]
  Emax: 28.3%
Progesterone receptor-B [2]; [4]
  Emax: 57%
Progesterone receptor-B [2]
  EC50: 0.427 nM

## C[C@]12C[C@H](c3ccc(-c4cccnc4)cc3)C3=C4CCC(=O)C=C4CC[C@H]3[C@@H]1CC[C@]2(C)C(=O)C1CC1 [Example 20, (11β,17β)-17-cyclopropylcarbonyl-17-methyl-11-[4-(3-pyridinyl)-phenyl]estra-4,9-dien-3-one]
Progesterone receptor-B [1]
  EC50: 0.49 nM
Progesterone receptor-B [1]; [3]
  Emax: 37.5%
Progesterone receptor-B [2]; [4]
  Emax: 58%
Progesterone receptor-B [2]
  EC50: 0.13 nM

## C[C@]12C[C@H](c3ccc(-c4cccnc4)cc3)C3=C4CCC(=O)C=C4CC[C@H]3[C@@H]1C[C@H]1C[C@]12C(=O)C1CC1 [Example 21, (11β,16α,17β)-17-cyclopropylcarbonyl-16,17-dihydro-11-[4-(3-pyridinyl)phenyl]-3′H-cyclopropa[16,17]estra 4,9,16-trien-3-one]
Progesterone receptor-B [1]
  EC50: 2 nM
Progesterone receptor-B [1]; [3]
  Emax: 18%
Progesterone receptor-B [2]; [4]
  Emax: 58%
Progesterone receptor-B [2]
  EC50: 1.4 nM

## C[C@@H]1C[C@H]2[C@@H]3CCC4=CC(=NO)CCC4=C3[C@@H](c3ccc(-c4cccnc4)cc3)C[C@]2(C)[C@H]1C(=O)C1CC1 [Example 22, (11β,16α,17β)-17-cyclopropylcarbonyl-16-methyl-11-[4-(3-pyridinyl)-phenyl]estra-4,9-dien-3-one 3-oxime]
Progesterone receptor-B [1]
  EC50: 0.64 nM
Progesterone receptor-B [1]; [3]
  Emax: 43%
Progesterone receptor-B [2]; [4]
  Emax: 32%
Progesterone receptor-B [2]
  EC50: 1.47 nM

## CC12CC(c3ccc(-c4cccnc4)cc3)C3=C4CCC(=O)C=C4CCC3C1CCC21CCCC1=O (stereo not drawn) [Example 23, (11β)-11-[4-(3-pyridinyl)phenyl]-17,24-cyclo-19,21-dinorchola 4,9-diene-3,20-dione]
Progesterone receptor-B [1]
  EC50: 0.29 nM
Progesterone receptor-B [1]; [3]
  Emax: 17%
Progesterone receptor-B [2]; [4]
  Emax: 70.8%
Progesterone receptor-B [2]
  EC50: 0.325 nM

## COc1ccc(-c2ccc([C@H]3C[C@@]4(C)[C@@H](CC[C@@]45CCCC5=O)[C@@H]4CCC5=CC(=O)CCC5=C43)cc2)cn1 [Example 24, (11β)-11-[4-(6-methoxypyridin-3-yl)phenyl]-17,24-cyclo-19,21-dinorchola 4,9-diene-3,20-dione]
Progesterone receptor-B [1]
  EC50: 0.15 nM
Progesterone receptor-B [1]; [3]
  Emax: 20%
Progesterone receptor-B [2]; [4]
  Emax: 62%
Progesterone receptor-B [2]
  EC50: 0.546 nM

## CC12CC(c3ccc(-c4cccnc4)cc3)C3=C4CCC(=O)C=C4CCC3C1CCC21CCCC1=O (stereo not drawn) [Example 25, (11β)-11-[4-(3-pyridinyl)phenyl]-17,24-cyclo-19,21-dinorchola-4,9-diene-3,20-dione hydrochloride]
Progesterone receptor-B [1]
  EC50: 0.48 nM
Progesterone receptor-B [1]; [3]
  PRBago Eff (%): 17%
Progesterone receptor-B [2]
  EC50: 1.1 nM
Progesterone receptor-B [2]; intrinsic antagonistic activity, percentage of effect of standard antagonist (6β,11β,17β)-11-[4-(dimethylamino)phenyl]-4′,5′-dihydro-6-methylspiro[estra-4,9-diene-17,2′(3′H)-furan]-3-one, 0.1 nM inducer, hydrochloride
  PRBant Eff (%): 66%

## C[C@@H]1C[C@@H]2C(=C3CCC(=O)C=C31)[C@@H](c1ccc(-c3cccnc3)cc1)C[C@@]1(C)[C@H]2C[C@@H](C)[C@@H]1C(=O)C1CC1 [Example 26, (6β,11β,16α,17β)-17-cyclopropylcarbonyl-6,16-dimethyl-11-[4-(3-pyridinyl)-phenyl]estra-4,9-dien-3-one]
Progesterone receptor-B [1]
  EC50: 0.809 nM
Progesterone receptor-B [1]; [3]
  Emax: 46%
Progesterone receptor-B [2]; [4]
  Emax: 17%
Progesterone receptor-B [2]
  EC50: 2.75 nM

## C[C@@H]1C[C@H]2[C@@H]3CCC4=CC(=O)CCC4=C3[C@@H](c3ccc(-c4ncccn4)cc3)C[C@]2(C)[C@H]1C(=O)C1CC1 [Example 27, (11β,16α,17β)-17-cyclopropylcarbonyl-16-methyl-11-[4-(pyrimidin-2-yl)phenyl]estra-4,9-dien-3-one]
Progesterone receptor-B [1]
  EC50: 2.54 nM
Progesterone receptor-B [1]; [3]
  Emax: 52%
Progesterone receptor-B [2]; [4]
  Emax: > 27%
Progesterone receptor-B [2]
  EC50: 3.25 nM
